Earlier results, collected in US20080095865A1, “COMPOSITION AND METHOD FOR INCREASING LEAN MUSCLE MASS, DECREASING MUSCLE LOSS, INCREASING MUSCLE STRENGTH AND IMPROVING ATHLETIC PERFORMANCE” (APLODAN FORMULATIONS LTD., priority 2004, published 2008).

Key:
[1] = supplemented rats
[2] = hamster, in vivo
[3] = as a supplement
[4] = patients with inadequate coronary blood flow
[5] = unaffected in placebo group
[6] = elderly subjects, compared to controls

| Compound | increase of metabolic clearance rate of glucose (diabetics) [%] | body's utilization of blood sugar (type II diabetics) | age-related changes in mitochondrial function, accumulated oxidative damage and metabolic rate [1] | high-density lipoproteins [2] | tolerance and side effects [3] | cardiac parameters [4] | hand-grip strength [5] | muscular performance [6] |
| --- | --- | --- | --- | --- | --- | --- | --- | --- |
| O=C(O)CCCC[C@@H]1CCSS1 (stereo in doubt) [Alpha Lipoic Acid, 1,2-dithiolane-3-pentanoic acid] | 50 | significantly increase | improved | beneficial increase in high-density lipoproteins | – | – | – | – |
| CN(CCOP(=O)(O)O)C(=N)N [Creatinol O-Phosphate] | – | – | – | – | well tolerated and without side effects | successfully used to improve cardiac parameters | improved | improved muscular performance as compared to controls |
